In general, IC50 refers to the point on the concentration scale where inhibition reaches its midpoint.

The target in the assay is Cdk4/CyclinD1 (Homo sapiens (Human), UniProt P11802). As to the kind of experiment: Cdk4 kinase inhibition assay with recombinant Cdk4/CyclinD1, Rb substrate, [33P]-ATP filter plate. In kind it is biochemical. The settings on record: 25 μM ATP, read-out: Cdk 4 IC50. The procedure: The Cdk4 and Cdk6 inhibitory activity of the compounds is measured with a kinase inhibition assay using recombinant Cdk4/CyclinD1 or Cdk6/CyclinD3 protein complexes. The protein substrate used in the assay is the retinoblastoma protein (Rb). The kinase reactions are carried out in a 96-well filter plate (MSDV N6B50, Millipore). […] The mixture is incubated at room temperature for 1 hour and the proteins precipitated with an equal volume of 20% TCA. The plates are washed with 10% TCA according to the manufacturer's instruction and dried at room temperature. The amount of the phosphorylated Rb is determined with a TopCount (PerkinElmer). The IC50 of a compound is determined by nonlinear regression curve fitting using software program Prism 5 (GraphPad Software).
Chain of Cdk4/CyclinD1 (P11802 whole entry): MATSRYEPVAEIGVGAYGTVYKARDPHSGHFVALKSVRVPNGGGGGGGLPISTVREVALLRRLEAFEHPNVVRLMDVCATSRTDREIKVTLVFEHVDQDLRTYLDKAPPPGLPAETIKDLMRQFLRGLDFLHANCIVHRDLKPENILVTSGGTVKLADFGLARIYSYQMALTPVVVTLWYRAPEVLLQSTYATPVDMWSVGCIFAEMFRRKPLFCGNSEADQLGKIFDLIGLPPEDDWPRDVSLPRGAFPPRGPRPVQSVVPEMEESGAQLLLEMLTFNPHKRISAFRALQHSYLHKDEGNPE
Chain of Cdk4/CyclinD1 (P24385 whole entry partner): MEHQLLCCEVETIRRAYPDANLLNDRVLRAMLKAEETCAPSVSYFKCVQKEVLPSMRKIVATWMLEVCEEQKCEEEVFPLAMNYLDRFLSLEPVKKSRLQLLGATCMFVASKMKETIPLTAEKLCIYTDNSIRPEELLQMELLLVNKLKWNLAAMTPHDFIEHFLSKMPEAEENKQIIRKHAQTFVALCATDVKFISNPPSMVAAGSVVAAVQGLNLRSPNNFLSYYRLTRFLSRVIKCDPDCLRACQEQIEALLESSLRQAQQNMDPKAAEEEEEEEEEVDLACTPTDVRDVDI
As for `CN(C)C1CCN(c2ccc(Nc3ncc4c5ccnc(O)c5n(C5CCC(C)(C)CC5)c4n3)nn2)CC1` [Example 211, 2-((6-(4-(dimethylamino)-1-piperidinyl)-3-pyridazinyl)amino)-9-(4,4-dimethylcyclohexyl)-9H-pyrido[4′,3′:4,5]pyrrolo[2,3-d]pyrimidin-8-ol], the half-maximal inhibitory concentration (IC50) came out at 0.0098 µM.
The value for `O=C(c1ccc(Nc2ncc3c4ccnc(F)c4n(C4CCCC4)c3n2)nc1)N1CCNCC1` [Example 222, 9-cyclopentyl-8-fluoro-N-(5-(1-piperazinylcarbonyl)-2-pyridinyl)-9H-pyrido[4′,3′:4,5]pyrrolo[2,3-d]pyrimidin-2-amine] was 0.006 µM; that for `O=C(c1ccc(Nc2ncc3c4ccnc(O)c4n(C4CCCC4)c3n2)nc1)N1CCNCC1` [Example 223, 9-cyclopentyl-2-((5-(1-piperazinylcarbonyl)-2-pyridinyl)amino)-9H-pyrido[4′,3′:4,5]pyrrolo[2,3-d]pyrimidin-8-ol] was 0.013 µM; that for `c1cc2c3cnc(Nc4ccc(N5CCC6(CCCN6)CC5)cn4)nc3n(C3CCCC3)c2cn1` [Example 231, 9-cyclopentyl-N-(5-(1,8-diazaspiro[45]dec-8-yl)-2-pyridinyl)-9H-pyrido[4′,3′:4,5]pyrrolo[2,3-d]pyrimidin-2-amine] was 0.0033 µM.
Turning to `c1cc2c3cnc(Nc4ccc(N5CCC6(CCCN6)CC5)nn4)nc3n(C3CCCC3)c2cn1` [Example 232, 9-cyclopentyl-N-(6-(1,8-diazaspiro[45]dec-8-yl)-3-pyridazinyl)-9H-pyrido[4′,3′:4,5]pyrrolo[2,3-d]pyrimidin-2-amine], the IC50 stood at 0.0072 µM.
To `O=C(O)Cc1ccc(Nc2ncc3c4ccncc4n(C4CCCC4)c3n2)nc1` [Example 241, (6-((9-cyclopentyl-9H-pyrido[4′,3′:4,5]pyrrolo[2,3-d]pyrimidin-2-yl)amino)-3-pyridinyl)acetic acid] belongs 0.177 µM; to `CN(C)C1CCN(C(=O)Cc2ccc(Nc3ncc4c5ccncc5n(C5CCCC5)c4n3)nc2)CC1` [Example 243, 9-cyclopentyl-N-(5-(2-(4-(dimethylamino)-1-piperidinyl)-2-oxoethyl)-2-pyridinyl)-9H-pyrido[4′,3′:4,5]pyrrolo[2,3-d]pyrimidin-2-amine], 0.007 µM; to `O=C(Cc1ccc(Nc2ncc3c4ccncc4n(C4CCCC4)c3n2)nc1)N1CCOCC1` [Example 244, 9-cyclopentyl-N-(5-(2-(4-morpholinyl)-2-oxoethyl)-2-pyridinyl)-9H-pyrido[4′,3′:4,5]pyrrolo[2,3-d]pyrimidin-2-amine], 0.011 µM.
To `O=C(Cc1ccc(Nc2ncc3c4ccncc4n(C4CCCC4)c3n2)nc1)N1CCNCC1` [Example 245, 9-cyclopentyl-N-(5-(2-oxo-2-(1-piperazinyl)ethyl)-2-pyridinyl)-9H-pyrido[4′,3′:4,5]pyrrolo[2,3-d]pyrimidin-2-amine] belongs 0.0074 µM.
The value for `c1cc2c3cnc(Nc4ccc(N5CCNC6(CCC6)C5)nn4)nc3n(C3CCCC3)c2cn1` [Example 246, 9-cyclopentyl-N-(6-(5,8-diazaspiro[3.5]non-8-yl)-3-pyridazinyl)-9H-pyrido[4′,3′:4,5]pyrrolo[2,3-d]pyrimidin-2-amine] was 0.07 µM; that for `c1cc2c3cnc(Nc4ccc(N5CCNC6(CCCC6)C5)nn4)nc3n(C3CCCC3)c2cn1` [Example 247, 9-cyclopentyl-N-(6-(6,9-diazaspiro[4.5]dec-9-yl)-3-pyridazinyl)-9H-pyrido[4′,3′:4,5]pyrrolo[2,3-d]pyrimidin-2-amine] was 0.0034 µM; that for `c1cc2c3cnc(Nc4ccc(N5CCC6(CC5)COCCN6)nn4)nc3n(C3CCCC3)c2cn1` [Example 249, 9-cyclopentyl-N-(6-(4-oxa-1,9-diazaspiro[5.5]undec-9-yl)-3-pyridazinyl)-9H-pyrido[4′,3″:4,5]pyrrolo[2,3-d]pyrimidin-2-amine] was 0.0044 µM.
As for `O=C1COC2(CCN(c3ccc(Nc4ncc5c6ccncc6n(C6CCCC6)c5n4)nn3)CC2)CN1` [Example 250, 9-(6-((9-cyclopentyl-9H-pyrido[4′,3′:4,5]pyrrolo[2,3-d]pyrimidin-2-yl)amino)-3-pyridazinyl)-1-oxa-4,9-diazaspiro[5.5]undecan-3-one], the 50% inhibitory concentration (IC50) is 0.016 µM.
As to `CN1CCOC2(CCN(c3ccc(Nc4ncc5c6ccncc6n(C6CCCC6)c5n4)nn3)CC2)C1` [Example 251, 9-cyclopentyl-N-(6-(4-methyl-1-oxa-4,9-diazaspiro[5.5]undec-9-yl)-3-pyridazinyl)-9H-pyrido[4′,3′:4,5]pyrrolo[2,3-d]pyrimidin-2-amine], the IC50 stood at 0.0032 µM.
The value for `O=S1(=O)CCC(O)(c2ccc(Nc3ncc4c5ccncc5n(C5CCCC5)c4n3)nc2)CC1` [Example 263, 4-(6-((9-cyclopentyl-9H-pyrido[4′,3′:4,5]pyrrolo[2,3-d]pyrimidin-2-yl)amino)-3-pyridinyl)tetrahydro-2H-thiopyran-4-ol 1,1-dioxide] was 0.014 µM; that for `c1cncc(-c2ccc(Nc3ncc4c5ccncc5n(C5CCCC5)c4n3)nn2)c1` [Example 267, 9-Cyclopentyl-N-(6-(3-pyridinyl)-3-pyridazinyl)-9H-pyrido[4′,3′:4,5]pyrrolo[2,3-d]pyrimidin-2-amine] was 0.073 µM; that for `c1cc2c3cnc(Nc4ccc(OC5CCNCC5)nn4)nc3n(C3CCCC3)c2cn1` [Example 268, 9-Cyclopentyl-N-(6-(4-piperidinyloxy)-3-pyridazinyl)-9H-pyrido[4′,3′:4,5]pyrrolo[2,3-d]pyrimidin-2-amine] was 0.011 µM.
The value for `Fc1nccc2c3cnc(Nc4ccc(OC5CCNCC5)nn4)nc3n(C3CCCC3)c12` [Example 269, 9-Cyclopentyl-8-fluoro-N-(6-(4-piperidinyloxy)-3-pyridazinyl)-9H-pyrido[4′,3′:4,5]pyrrolo[2,3-d]pyrimidin-2-amine] was 0.035 µM.
The value for `COCC(C)(C)n1c2cnccc2c2cnc(Nc3ccc(N4CCC(N(C)C)CC4)cn3)nc21` [Example 273, N-(5-(4-(dimethylamino)-1-piperidinyl)-2-pyridinyl)-9-(2-methoxy-1,1-dimethylethyl)-9H-pyrido[4′,3′:4,5]pyrrolo[2,3-d]pyrimidin-2-amine] was 0.019 µM.
With `COCC(C)(C)n1c2cnccc2c2cnc(Nc3ccc(N4CCC(N(C)C)CC4)nn3)nc21` [Example 274, N-(6-(4-(dimethylamino)-1-piperidinyl)-3-pyridazinyl)-9-(2-methoxy-1,1-dimethylethyl)-9H-pyrido[4′,3′:4,5]pyrrolo[2,3-d]pyrimidin-2-amine], the IC50 was 1 µM.
For the compound `CN(C)C1CCN(c2ccc(Nc3ncc4c5ccncc5n(C5CCSCC5)c4n3)nn2)CC1` [Example 275, N-(6-(4-(dimethylamino)-1-piperidinyl)-3-pyridazinyl)-9-(tetrahydro-2H-thiopyran-4-yl)-9H-pyrido[4′,3′:4,5]pyrrolo[2,3-d]pyrimidin-2-amine], the IC50 is 0.017 µM.
In the case of `CN(C)C1CCN(c2ccc(Nc3ncc4c5ccncc5n(C5CCSCC5)c4n3)nc2)CC1` [Example 276, N-(5-(4-(dimethylamino)-1-piperidinyl)-2-pyridinyl)-9-(tetrahydro-2H-thiopyran-4-yl)-9H-pyrido[4′,3′:4,5]pyrrolo[2,3-d]pyrimidin-2-amine], the IC50 is 0.096 µM.
To `CCN(CC)C1CCN(c2ccc(Nc3ncc4c5ccnc(F)c5n(C5CCCC5)c4n3)nn2)CC1` [Example 277, 9-Cyclopentyl-N-(6-(4-(diethylamino)-1-piperidinyl)-3-pyridazinyl)-8-fluoro-9H-pyrido[4′,3′:4,5]pyrrolo[2,3-d]pyrimidin-2-amine] belongs 0.018 µM; to `CCN(CC)C1CCN(c2ccc(Nc3ncc4c5ccnc(F)c5n(C5CCCC5)c4n3)nc2)CC1` [Example 278, 9-Cyclopentyl-N-(5-(4-(diethylamino)-1-piperidinyl)-2-pyridinyl)-8-fluoro-9H-pyrido[4′,3′:4,5]pyrrolo[2,3-d]pyrimidin-2-amine], 0.0046 µM.
The value for `CN(C)C1CCN(c2ccc(Nc3ncc4c5ccncc5n(C5CCS(=O)(=O)CC5)c4n3)nn2)CC1` [Example 279, N-(6-(4-(dimethylamino)-1-piperidinyl)-3-pyridazinyl)-9-(1,1-dioxidotetrahydro-2H-thiopyran-4-yl)-9H-pyrido[4′,3′:4,5]pyrrolo[2,3-d]pyrimidin-2-amine] was 0.59 µM.
The value for `CN(C)C1CCN(c2ccc(Nc3ncc4c5ccncc5n(C5CCS(=O)(=O)CC5)c4n3)nc2)CC1` [Example 280, N-(5-(4-(dimethylamino)-1-piperidinyl)-2-pyridinyl)-9-(1,1-dioxidotetrahydro-2H-thiopyran-4-yl)-9H-pyrido[4′,3′:4,5]pyrrolo[2,3-d]pyrimidin-2-amine] was 0.059 µM.
`CCN(CC)C1CCN(c2ccc(Nc3ncc4c5ccnnc5n(C5CCCC5)c4n3)nc2)CC1` [Example 281, 9-Cyclopentyl-N-(5-(4-(diethylamino)-1-piperidinyl)-2-pyridinyl)-9H-pyrimido[5′,4′:4,5]pyrrolo[2,3-c]pyridazin-7-amine]: the IC50 came to 0.011 µM.
With `CCN(CC)C1CCN(c2ccc(Nc3ncc4c5ccnc(O)c5n(C5CCCC5)c4n3)nn2)CC1` [Example 282, 9-cyclopentyl-2-((6-(4-(diethylamino)-1-piperidinyl)-3-pyridazinyl)amino)-9H-pyrido[4′,3′:4,5]pyrrolo[2,3-d]pyrimidin-8-ol], the half-inhibitory concentration (IC50) was 0.0028 µM.
The value for `CCN(CC)C1CCN(c2ccc(Nc3ncc4c5ccnc(OC)c5n(C5CCCC5)c4n3)nn2)CC1` [Example 283, 9-cyclopentyl-N-(6-(4-(diethylamino)-1-piperidinyl)-3-pyridazinyl)-8-methoxy-9H-pyrido[4′,3′:4,5]pyrrolo[2,3-d]pyrimidin-2-amine] was 0.011 µM.

The values are drawn from US8841312B2, “Fused pyridine, pyrimidine and triazine compounds as cell cycle inhibitors” (Amgen Inc., priority 2007, dated 2014).
